From US20040023998A1, “Novel crystals of 1,3,4-oxadiazole derivatives, process for producing the crystals and medicines containing the same as the active ingredient” (priority 2000, published 2004)
Values after ≈ are worked out from the molar mass of the structure shown.

How the values were obtained:
[1] = From the text: Moreover, for removing tetrahydrofuran in this Type-1 crystals and obtaining Type-1 crystals, it is necessary to reflux them in ethanol.
[2] = Solubility of compound of the present invention in various solvents (saturated solution, HPLC); assay type: physicochemical
Experimental: The compound of the present invention was added to various solvents so that a saturated state was achieved. Each mixture was stirred for 30 seconds by means of a laboratory mixer and then allowed to stand for 4 minutes and 30 seconds. The stirring and standing operations were repeated seven times. The mixture was centrifuged at 3000 rpm for 15 minutes and isoamyl 4-hydroxybenzoate was added as an internal standard to the resulting supernatant. Furthermore, acetonitrile was added to the supernatant to form a sample solution. A portion (8 μL) of each solution was analyzed using high performance liquid chromatography (HPLC) under the following conditions to determine its concentration by the internal standard method, and thereby solubility was calculated. Additionally, pH at the dissolution was measured.
HPLC measuring conditions
Eluent: 20 mmol/L aqueous potassium dihydrogen phosphate solution (pH 8.0, sodium hydroxide)/acetonitrile=65/35
As the buffer (buffer solution) in Table 5, Briton-Robinson Buffer having an ionic strength of 0.2 was used.

[3] = Stability test (storage of solid, residual ratio by HPLC); assay type: physicochemical; conditions: all storage conditions of Table 6
Experimental: The compound of the present invention (about 50 mg) was weighed in a test tube and stored under the following conditions. The stored sample was analyzed using high performance liquid chromatography (HPLC) to calculate its residual ratio by the internal standard method.
Condition 1: 60° C., sealed, 1 month;
Condition 2: 40° C., open, 75%RH (relative humidity), 3 months;
Condition 3: 40° C., sealed, 6 months;
Condition 4: 25° C., open, 60%RH (relative humidity), 12 months;
Condition 5: 5° C., sealed, 12 months;
The HPLC measurement was carried out under the same conditions as in Example 2 described above.

With `CC(C)C(NC(=O)Cn1c(-c2ccccc2)ncc(N)c1=O)C(=O)c1nnc(C(C)(C)C)o1` (racemic) [Type-1 crystals, 2-[5-Amino-6-oxo-2-phenyl-1,6-dihydro-1-pyrimidyl]-N-[1-(2-[5-t-butyl-1,3,4-oxadiazolyl]carbonyl)-2-(R,S)-methylpropyl]acetamide, reference compound] the “Stability of the form in water” value [1] was “promptly results in precipitation of Type-2 crystals”.

`CC(C)C(NC(=O)Cn1c(-c2ccccc2)ncc(N)c1=O)C(=O)c1nnc(C(C)(C)C)o1` (racemic) [compound of the present invention, 2-[5-amino-6-oxo-2-phenyl-1,6-dihydro-1-pyrimidyl]-N-[1-(2-[5-t-butyl-1,3,4-oxadiazolyl]carbonyl)-2-(R,S)-methylpropyl]acetamide] gave a solubility at 35 min ([2]; aqueous buffer, thermodynamic from solid, Buffer pH 3.0 (Briton-Robinson, ionic strength 0.2), pH at dissolution 3.0) of 122 µg/mL (≈ 270 µM), a solubility at 35 min ([2]; aqueous buffer, thermodynamic from solid, Buffer pH 5.0 (Briton-Robinson, ionic strength 0.2), pH at dissolution 5.0) of 104 µg/mL (≈ 230 µM) and a solubility at 35 min ([2]; aqueous buffer, thermodynamic from solid, Buffer pH 7.0 (Briton-Robinson, ionic strength 0.2), pH at dissolution 7.0) of 94 µg/mL (≈ 208 µM). The solubility at 35 min ([2]; aqueous buffer, thermodynamic from solid, Buffer pH 9.0 (Briton-Robinson, ionic strength 0.2), pH at dissolution 8.6) was 45 µg/mL (≈ 99.4 µM), the solubility at 35 min ([2]; organic solvent or mixture, thermodynamic from solid, solvent: Acetonitrile) was 19100 µg/mL (≈ 42200 µM) and the solubility at 35 min ([2]; organic solvent or mixture, thermodynamic from solid, solvent: Ethanol) was 7290 µg/mL (≈ 16100 µM). It also gave a solubility at 35 min ([2]; organic solvent or mixture, thermodynamic from solid, solvent: Methanol) of 33600 µg/mL (≈ 74300 µM), a solubility at 35 min ([2]; organic solvent or mixture, thermodynamic from solid, solvent: Octanol) of 710 µg/mL (≈ 1570 µM) and a solubility at 35 min ([2]; pH 7.3, thermodynamic from solid, solvent: Purified water, pH at dissolution 7.3) of 73 µg/mL (≈ 161 µM). The “Stability (conclusion from Table 6)” value [3] was “sufficiently stable” and the Toxicity (Toxicity) was “sufficiently low toxicity”.
